These results are taken from publication PMC9569995, “Study of Biological Activities and ADMET-Related Properties of Salicylanilide-Based Peptidomimetics” (International Journal of Molecular Sciences, 2022).

In brackets after ≈: the same amount, converted by molar mass. Several values for one entry are separate records, joined by “and”; a condition that tells them apart may be missing. Identical values can stand only once. Like-named read-outs stand apart in the source and are kept apart here.

Data set [1] concerns human monocytic leukemia cell line THP-1. Briefly: In vitro cell viability analysis (CCK-8). In kind it is cell-based. To be noted: ± SD, n = 6, medium with 10% FBS, 24 h. The essentials:
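THP-1 cells in RPMI 1640 with 10% FBS exposed to DMSO-dissolved compounds for 24 h at 37 °C, 5% CO2, in complete medium. Viability read by CCK-8.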

For data set [2], the system named is methicillin-resistant S. aureus SA 3202. Put plainly: Determination of minimum bactericidal concentrations (agar aliquot subculture). To be noted: Staphylococcus aureus.
Data set [3] relates to vancomycin-resistant E. faecalis VRE 342B. Briefly: In vitro antibacterial evaluation, MIC by microtitration broth method. To be noted: Enterococcus faecalis, 24 h.
Data set [4] concerns Staphylococcus aureus ATCC 29213. Described as above. To be noted: ATCC29213, 24 h.
The test system of data set [5] is methicillin-resistant S. aureus 63718. Briefly: Determination of minimum bactericidal concentrations (agar aliquot subculture). To be noted: Staphylococcus aureus.
Data set [6] in a line: Lipophilicity determination by HPLC. It is filed as physicochemical. To be noted: for log D6.5: HPLC C18, MeOH 72%/acetate-buffered saline pH 6.5 28%; for log D7.4: HPLC C18, MeOH 72%/acetate-buffered saline pH 7.4 28%; for log k: logarithm of capacity factor, HPLC C18, MeOH 72%/H2O 28%. The essentials:
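Symmetry C18 column at 40 °C, isocratic MeOH 72% with 28% water for capacity factor k, or with 28% acetate-buffered saline pH 7.4 or 6.5 for D7.4/D6.5. UV 210 nm; dead time from KI. k and D calculated as (tR − tD)/tD; triplicate runs.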

The subject of data set [7] is vancomycin-resistant E. faecalis VRE 725B. Briefly: In vitro antibacterial evaluation, MIC by microtitration broth method. To be noted: Enterococcus faecalis, 24 h.
Data set [8] concerns vancomycin-resistant E. faecalis VRE 368. Put plainly: Determination of minimum bactericidal concentrations (agar aliquot subculture). To be noted: Enterococcus faecalis.
Data set [9] has as its system vancomycin-resistant E. faecalis VRE 725B. Described as above. To be noted: Enterococcus faecalis.
The test system of data set [10] is vancomycin-resistant E. faecalis VRE 368. Briefly: In vitro antibacterial evaluation, MIC by microtitration broth method. To be noted: Enterococcus faecalis, 24 h.
The test system of data set [11] is methicillin-resistant S. aureus SA 3202. Described as above. To be noted: Staphylococcus aureus, 24 h.
The subject of data set [12] is Enterococcus faecalis ATCC 29212. The data set is described as above. To be noted: ATCC29212, 24 h.
Data set [13] deals with vancomycin-resistant E. faecalis VRE 342B. Briefly: Determination of minimum bactericidal concentrations (agar aliquot subculture). To be noted: Enterococcus faecalis.
The test system of data set [14] is Enterococcus faecalis ATCC 29212. Described as above. To be noted: ATCC29212.
Another data set has as its system Clostridium perfringens. To be noted: cited from earlier work.
Data set [15] deals with methicillin-resistant S. aureus SA 630. Briefly: In vitro antibacterial evaluation, MIC by microtitration broth method. To be noted: Staphylococcus aureus, 24 h.
The next data set deals with Bacillus cereus. To be noted: cited from earlier work.
The next data set relates to Mycobacterium kansasii. To be noted: cited from earlier work.
The next data set has as its system M. smegmatis ATCC 700084. Briefly: In vitro antimycobacterial evaluation, MIC (broth dilution micro-method). It is filed as cell-based, Mycobacterium smegmatis. On the technique in general: Broth dilution looks for growth in wells or tubes with falling amounts of substance.
The subject of a further data set is M. smegmatis. To be noted: cited from earlier work.
In data set [16] the test system is Staphylococcus aureus ATCC 29213. Put plainly: Determination of minimum bactericidal concentrations (agar aliquot subculture). To be noted: ATCC29213.
The test system of data set [17] is methicillin-resistant S. aureus SA 630. Described as above. To be noted: Staphylococcus aureus.
Data set [18] relates to methicillin-resistant S. aureus 63718. Put plainly: In vitro antibacterial evaluation, MIC by microtitration broth method. To be noted: Staphylococcus aureus, 24 h.
The subject of data set [19] is Mycobacterium tuberculosis H37Ra/ATCC 25177. Put plainly: In vitro antimycobacterial evaluation, MIC (alamarBlue). To be noted: MT; 14 days, 37 °C. On the technique in general: The colour change of resazurin is a common sign of viable cells or microbes.
The next data set deals with S. aureus ATCC 29123. Briefly: Crystal violet uptake (membrane permeability). To be noted: 4× MIC, 1 h; compared to growth control and 1% Tween 20.
The test system of a further data set is S. aureus ATCC 29213. Put plainly: MTT assay of bacterial viability (respiration). To be noted: for Conc.: lowest multiple of MBC with at least 70% inhibition of S. aureus viability / Conc.: lowest multiple of MIC with at least 70% inhibition of S. aureus viability: MTT, 24 h. For orientation: Formazan colour is commonly taken as a measure of viable cells.
For data set [20], the system named is methicillin-resistant S. aureus 63718. Details: method as in PMID 26079401. To be noted: MRSA 63718 (VA2-MRSA); cited from earlier work.
Where [21] appears, read: Mycolicibacterium smegmatis, ATCC700084, 72 h.

As to `CC(C)[C@H](NC(=O)c1cc(Cl)ccc1O)C(=O)Nc1ccc(C(F)(F)F)cc1` [3c, 5-Chloro-2-hydroxy-N-[(2S)-3-methyl-1-oxo-1-{[4-(trifluoromethyl)phenyl]amino}butan-2-yl]benzamide], in data set [1], the IC50 (in general, the concentration that gives 50% inhibition) is above 10 µM. The MBC (in general, the lowest tested concentration that kills the bacteria rather than only halting them) worked out at 4.82 µM (≈ 2 µg/mL) in data set [2]; 9.64 µM (≈ 4 µg/mL) in [5]; 38.6 µM (≈ 16 µg/mL) in [8]; 38.6 µM (≈ 16 µg/mL) in [9]; 38.6 µM (≈ 16 µg/mL) in [13]; 38.6 µM (≈ 16 µg/mL) in data set [14]. The MBC in data set [16] and in data set [17] was 4.82 µM (≈ 2 µg/mL) throughout. The MIC was 38.6 µM (≈ 16 µg/mL) in [3]; 2.41 µM (≈ 1 µg/mL) in data set [4]; 38.6 µM (≈ 16 µg/mL) in data set [7]; 38.6 µM (≈ 16 µg/mL) in data set [10]; 4.82 µM (≈ 2 µg/mL) in [11]; 38.6 µM (≈ 16 µg/mL) in data set [12]. Moreover, the MIC with Clostridium perfringens was 4.82 µM (≈ 2 µg/mL); in [15], 4.82 µM (≈ 2 µg/mL); in the data set on Bacillus cereus it was 2.41 µM (≈ 1 µg/mL); in the data set on Mycobacterium kansasii, 38.6 µM (≈ 16 µg/mL); in the data set on M. smegmatis ATCC 700084 (setting [21]), 77.1 µM (≈ 32 µg/mL); in the data set with M. smegmatis it was 77.1 µM (≈ 32 µg/mL). The MIC in [18] was determined as 4.82 µM (≈ 2 µg/mL); in data set [19], 77.1 n.d. µM. Also, the “log D6.5” value in data set [6] came out at 0.973. For the same compound, the “log D7.4” value in [6] was determined as 0.934. The compound further gave a log k in [6] of 1.081.
Compound `CSCC[C@H](NC(=O)c1cc(Cl)ccc1O)C(=O)Nc1ccc(C(F)(F)F)cc1` [3e, 5-Chloro-2-hydroxy-N-[(2S)-4-(methylsulfanyl)-1-oxo-1-{[4-(trifluoromethyl)phenyl]amino}butan-2-yl]benzamide] had an IC50 in data set [1] above 10 µM. Further, the MBC was 8.95 µM (≈ 4 µg/mL) in [2]; 8.95 µM (≈ 4 µg/mL) in data set [5]; 35.8 µM (≈ 16 µg/mL) in [8]; 35.8 µM (≈ 16 µg/mL) in data set [9]; 35.8 µM (≈ 16 µg/mL) in [13]; 35.8 µM (≈ 16 µg/mL) in data set [14]. For the same compound, the results for the MBC in data set [16] and in [17] were 2.24 µM (≈ 1 µg/mL) and 8.95 µM (≈ 4 µg/mL), respectively. Moreover, the MIC in [3] worked out at 35.8 µM (≈ 16 µg/mL); in [4] it was 2.24 µM (≈ 1 µg/mL); in data set [7] it was 35.8 µM (≈ 16 µg/mL); in [10], 17.9 µM (≈ 8 µg/mL); in [11] it was 8.95 µM (≈ 4 µg/mL); in [12], 17.9 µM (≈ 8 µg/mL). Besides, the MIC was 4.48 µM (≈ 2 µg/mL) in data set [15]; 35.8 n.d. µM in the data set on M. smegmatis ATCC 700084 (MS, three days, 37 °C); 35.8 µM (≈ 16 µg/mL) against M. smegmatis ATCC 700084 (setting [21]); 8.95 µM (≈ 4 µg/mL) in data set [18]; 35.8 µM and 35.8 n.d. µM in data set [19]. Also, the “log D6.5” value in data set [6] amounted to 1.021. In addition, the “log D7.4” value in data set [6] came to 0.963. Besides, the log k in data set [6] is 1.076. In the data set with S. aureus ATCC 29123, the “effect on plasma membrane permeability (crystal violet uptake)” value is recorded as “did not affect plasma membrane permeability”. Further, the “Conc.: lowest multiple of MBC with at least 70% inhibition of S. aureus viability” value with S. aureus ATCC 29213 is listed as 2× MIC (2× MBC). Moreover, in the data set on S. aureus ATCC 29213, the “Conc.: lowest multiple of MIC with at least 70% inhibition of S. aureus viability” value is reported as 2× MIC (2× MBC). In the data set on S. aureus ATCC 29213 (at 2× MIC (2× MBC)), the “S. aureus Viability Inhibition” value was 94% and 94.6%.
Compound `CC(C)C[C@H](NC(=O)c1cc(Cl)ccc1O)C(=O)Nc1ccc(C(F)(F)F)cc1` [3f] displayed an IC50 in data set [1] of 1.9 ± 1.1 µM. Moreover, the MBC in [2] turned out to be 1.17 µM (≈ 0.502 µg/mL); in data set [5], 0.07 µM (≈ 0.03 µg/mL); in [8] it was 18.7 µM (≈ 8.02 µg/mL); in [9], 37.3 µM (≈ 16 µg/mL); in [13], 18.7 µM (≈ 8.02 µg/mL); in data set [14] it was 9.33 µM (≈ 4 µg/mL). In addition, the MBC in [16] and in [17] was 1.17 µM (≈ 0.502 µg/mL) throughout. For the same compound, the MIC in data set [4] is 1.17 µM (≈ 0.502 µg/mL); in data set [7], 4.66 µM (≈ 2 µg/mL); in data set [10], 9.33 µM (≈ 4 µg/mL); in data set [11], 1.17 µM (≈ 0.502 µg/mL); in data set [12], 4.66 µM (≈ 2 µg/mL); in [15], 1.17 µM (≈ 0.502 µg/mL). For the same compound, the MIC with M. smegmatis ATCC 700084 (MS, three days, 37 °C) was 18.7 n.d. µM; against M. smegmatis ATCC 700084 (setting [21]), 18.7 µM (≈ 8.02 µg/mL); in data set [18], 0.07 µM (≈ 0.03 µg/mL); in data set [19], 18.7 µM and 18.7 n.d. µM. Further, in [6], the “log D6.5” value was found to be 1.256. For the same compound, the “log D7.4” value in [6] came to 1.161. This compound also yielded a log k in data set [6] of 1.266. The “effect on plasma membrane permeability (crystal violet uptake)” value in the data set with S. aureus ATCC 29123 is “did not affect plasma membrane permeability”. The “Conc.: lowest multiple of MBC with at least 70% inhibition of S. aureus viability” value with S. aureus ATCC 29213 is 1× MIC (1× MBC). Moreover, the “Conc.: lowest multiple of MIC with at least 70% inhibition of S. aureus viability” value with S. aureus ATCC 29213 is listed as 1× MIC (1× MBC). Further, in the data set on S. aureus ATCC 29213 (at 1× MIC (1× MBC)), the “S. aureus Viability Inhibition” value came out at 95.3%. Moreover, the “viability of bacterial cells” value in the data set on S. aureus ATCC 29213 (at their MIC value or below) is listed as “less than 70%”.
`CN[C@H](CC(C)C)C(=O)N[C@H]1C(=O)N[C@@H](CC(N)=O)C(=O)N[C@H]2C(=O)N[C@H]3C(=O)N[C@H](C(=O)N[C@H](C(=O)O)c4cc(O)cc(O)c4-c4cc3ccc4O)[C@H](O)c3ccc(c(Cl)c3)Oc3cc2cc(c3O[C@@H]2O[C@H](CO)[C@@H](O)[C@H](O)[C@H]2O[C@H]2C[C@](C)(N)[C@H](O)[C@H](C)O2)Oc2ccc(cc2Cl)[C@H]1O` [vancomycin]: the MIC in data set [20] was 2 µg/mL (≈ 1.38 µM).
